Converted amounts (≈) assume the structure as drawn. Read-outs that look alike come from different tables or passages of the source.
How the values were obtained:
[1] = Proliferation of uninfected mouse embryo fibroblast (MEF) cultures (cytotoxic action); assay type: cell-based; conditions: mouse, mouse embryo fibroblasts
Description: (§1) The test compound was evaluated on mouse embryo fibroblast (MEF) cultures infected with MSV and on similar uninfected cultures. After a treatment of three days the inhibiting doses (ID50) were evaluated on cell proliferation in uninfected cultures (cytotoxic action) and on MSV foci formation in infected cultures (antiviral action).
^c inhibition of mouse embryo fibroblasts proliferation

[2] = tested on: Moloney Sarcoma Virus (MSV); experiment: Formation of foci by Moloney Sarcoma Virus (MSV) in vitro (antiviral action); assay type: cell-based; conditions: Fibroblast, 72 h
Description: as §1
^b inhibition of MSV foci formation

Hela cells = experiment: Cloning efficiency of Hela cells in vitro (colony inhibition); assay type: cell-based; conditions: Homo sapiens
Description: After treatment for 2, 8 and 24 hours, Hela cells were seeded (200 cells per plate) and the number of colonies determined 8 days later. The inhibiting dose (ID50) represents the does which produces a 50% inhibition of colonies.
^a cloning efficiency of Hela cells

solid sarcoma 180 = experiment: Solid sarcoma 180, treatment i.v. on days 1 to 5; assay type: in vivo, mouse
Text: (§2) Activity of 4-demethoxy-4'-epi-adriamycin on
solid sarcoma 180. Treatment i.v. on days 1 to 5.
Average data of 2 experiments.
^a Tumor weight on day 11, % over untreated controls.

Gross leukemia = experiment: Gross leukemia, treatment i.v. on days 1 to 3; assay type: in vivo, mouse
Text: On Gross leukemia (which is a systemic tumor transplanted i.v.), the increase in the life span of mice treated with the two compounds at equitoxic doses was similar.
Activity of 4-demethoxy-4'-epi-adriamycin
on Gross leukemia. Treatment i.v. on days
Average data of 2 experiments^a.
^a See legends to Table 7.

P 388 leukemia = experiment: Ascitic leukemia P 388, treatment i.p. on day 1; assay type: in vivo, mouse
Text: as §2
(§3) ascitic leukemias. Treatment i.p. on day 1.
(§4) ^a Median survival time, % over untreated controls
(§5) ^b Long term survivors at 60 days

Ascites Sarcoma 180 = Ascites Sarcoma 180 in Swiss CD1 mice, i.p.; assay type: in vivo, mouse (Swiss CD1); conditions: 4.5 ng/Kg (so in the source), i.p. one day after inoculation
Description: In Table 5 the activity of 3'-4'-epi-6'-hydroxyadriamycin on Ascites Sarcoma 180 in mice is reported. The test was carried out on groups of 10 mice (Swiss CD1). The compound under examination was administered intraperitoneally in varying doses to the test animals one day after intraperitoneal inoculation with 1×10^6 tumor cells/mouse.
The average survival time is given as percentage of the survival time of untreated animals, which is arbitrarily designated as 100%. The number of long term survivors (LTS) is also reported.

L 1210 leukemia [3] = experiment: Ascitic leukemia L 1210, treatment i.p. on day 1; assay type: in vivo, mouse
Text: as §2, §3, §4, §5

L 1210 leukemia [4] = experiment: L 1210 leukemia bearing BDF mice, single i.p. treatment on first day; assay type: in vivo, mouse (BDF); conditions: for T/C %: single i.p. day 1
Text: Inbread BDF mice were intraperitoneally inoculated with 1×10^5 leukemia cells/mouse and then treated with 3'-4'-epi-6'-hydroxydaunomycin:Single treatment i.p. on the first day.

**Q.** What does the source list for `COc1cccc2c1C(=O)c1c(O)c3c(c(O)c1C2=O)C[C@@](O)(C(C)=O)C[C@@H]3O[C@H]1C[C@H](N)[C@H](O)[C@H](C)O1` [Daunomycin]?
**A.** CC50 at 72 h ([1]; uninfected MEF, three days treatment, Table 2, read-out: Cytotoxic action ID50): 16 ng/mL (≈ 30.3 nM); IC50 ([2]; read-out: Antiviral action ID50): 3 ng/mL (≈ 5.69 nM); IC50 (Hela cells; 2 h, read-out: ID50 (action on Hela cells), 2 hours treatment, Table 1): 17000 ng/mL (≈ 32200 nM); IC50 (Hela cells; 8 h, read-out: ID50 (action on Hela cells), 8 hours treatment, Table 1): 8500 ng/mL (≈ 16100 nM); IC50 (Hela cells; 24 h, read-out: ID50 (action on Hela cells), 24 hours treatment, Table 1): 6800 ng/mL (≈ 12900 nM)

**Q.** What does the source list for `COc1cccc2c1C(=O)c1c(O)c3c(c(O)c1C2=O)C[C@@](O)(C(=O)CO)C[C@@H]3O[C@H]1C[C@H](N)[C@H](O)[C@H](C)O1` [Adriamycin, adriamycin]?
**A.** CC50 at 72 h ([1]; 72 (hours) treatment, Table 6, read-out: ID50, inhibition of mouse embryo fibroblasts proliferation): 0.026 ng/mL (≈ 0.0478 nM); T/C % (tumor weight on day 11, % over untreated controls) (solid sarcoma 180; 2 mg/Kg i.v. days 1 to 5): 22.2%; Toxic deaths (solid sarcoma 180; 2 mg/Kg i.v. days 1 to 5): 3/19; T/C % (tumor weight on day 11, % over untreated controls) (solid sarcoma 180; 2.5 mg/Kg i.v. days 1 to 5): 13.5%; Toxic deaths (solid sarcoma 180; 2.5 mg/Kg i.v. days 1 to 5): 11/18; LTS (long term survivors) (Gross leukemia; 3.5 mg/Kg i.v. days 1 to 3): 0/20; T/C % (median survival time, % over untreated controls) (Gross leukemia; 3.5 mg/Kg i.v. days 1 to 3): 164%; Toxic deaths (Gross leukemia; 3.5 mg/Kg i.v. days 1 to 3): 0/20; LTS (long term survivors) (Gross leukemia; 4.5 mg/Kg i.v. days 1 to 3): 0/20; T/C % (median survival time, % over untreated controls) (Gross leukemia; 4.5 mg/Kg i.v. days 1 to 3): 182%; Toxic deaths (Gross leukemia; 4.5 mg/Kg i.v. days 1 to 3): 0/20; LTS (long term survivors) (Gross leukemia; 5.5 mg/Kg i.v. days 1 to 3): 1/10; T/C % (median survival time, % over untreated controls) (Gross leukemia; 5.5 mg/Kg i.v. days 1 to 3): 200%; Toxic deaths (Gross leukemia; 5.5 mg/Kg i.v. days 1 to 3): 1/10; LTS (long term survivors) (Gross leukemia; 6 mg/Kg i.v. days 1 to 3): 0/10; T/C % (median survival time, % over untreated controls) (Gross leukemia; 6 mg/Kg i.v. days 1 to 3): 214%; Toxic deaths (Gross leukemia; 6 mg/Kg i.v. days 1 to 3): 3/10; IC50 ([2]; read-out: ID50, inhibition of MSV foci formation): 0.01 ng/mL (≈ 0.0184 nM); IC50 (Hela cells; read-out: ID50, cloning efficiency of Hela cells, 8 (hours) treatment, Table 6): 28 ng/mL (≈ 51.5 nM); IC50 (Hela cells; read-out: ID50, cloning efficiency of Hela cells, 24 (hours) treatment, Table 6): 12.5 ng/mL (≈ 23 nM); LTS (long term survivors at 60 days) (P 388 leukemia; 2.5 mg/Kg i.p. day 1): 0/10; T/C % (median survival time, % over untreated controls) (P 388 leukemia; 2.5 mg/Kg i.p. day 1): 150%; Toxic deaths (P 388 leukemia; 2.5 mg/Kg i.p. day 1): 0/10; LTS (long term survivors at 60 days) (P 388 leukemia; 5 mg/Kg i.p. day 1): 0/10; T/C % (median survival time, % over untreated controls) (P 388 leukemia; 5 mg/Kg i.p. day 1): 162%; Toxic deaths (P 388 leukemia; 5 mg/Kg i.p. day 1): 0/10; LTS (long term survivors at 60 days) (P 388 leukemia; 10 mg/Kg i.p. day 1): 1/10; T/C % (median survival time, % over untreated controls) (P 388 leukemia; 10 mg/Kg i.p. day 1): 200%; Toxic deaths (P 388 leukemia; 10 mg/Kg i.p. day 1): 0/10; LTS (long term survivors) (Ascites Sarcoma 180): 1/10; T/C % (average survival time, % of untreated) (Ascites Sarcoma 180): 250%; LTS (long term survivors at 60 days) (L 1210 leukemia [3]; 2.5 mg/Kg i.p. day 1): 4/11; T/C % (median survival time, % over untreated controls) (L 1210 leukemia [3]; 2.5 mg/Kg i.p. day 1): 155%; Toxic deaths (L 1210 leukemia [3]; 2.5 mg/Kg i.p. day 1): 0/11; LTS (long term survivors at 60 days) (L 1210 leukemia [3]; 5 mg/Kg i.p. day 1): 1/11; T/C % (median survival time, % over untreated controls) (L 1210 leukemia [3]; 5 mg/Kg i.p. day 1): 166%; Toxic deaths (L 1210 leukemia [3]; 5 mg/Kg i.p. day 1): 1/11; LTS (long term survivors at 60 days) (L 1210 leukemia [3]; 10 mg/Kg i.p. day 1): 3/11; T/C % (median survival time, % over untreated controls) (L 1210 leukemia [3]; 10 mg/Kg i.p. day 1): 155%; Toxic deaths (L 1210 leukemia [3]; 10 mg/Kg i.p. day 1): 7/11

**Q.** With `COc1cccc2c1C(=O)c1c(O)c3c(c(O)c1C2=O)C[C@@](O)(C(C)=O)C[C@@H]3O[C@H]1C[C@@H](N)[C@@H](O)[C@H](CO)O1` [3'-4'-epi-6'-hydroxydaunomycin, 3',4'-epi-6'-hydroxy-daunomycin] as the molecule, how does the T/C % (L 1210 leukemia [4]; 7.5 ng/Kg (so in the source)) read?
**A.** The T/C % was 150%.

**Q.** And the T/C % (L 1210 leukemia [4]; 11.5 ng/Kg (so in the source))?
**A.** Its T/C % is 150%.

**Q.** And the T/C % (L 1210 leukemia [4]; 17.25 ng/Kg (so in the source))?
**A.** The T/C % was 150%.

**Q.** What about the in vivo activity (L 1210 leukemia [4]; Table 4) of the same molecule?
**A.** The in vivo activity was “significant in vivo activity”.

From patent publication US4112076A, “Epi-daunomycin and epi-adriamycin compounds and method of use” (priority 1975, dated 1978)
